Data on one molecule can be found in US11617730B2, “Pharmaceutical formulation for administering paracetamol by buccal/gingival route” (Unither Pharmaceuticals, priority 2017, dated 2023).

Data set [1] can be described thus: Stability / pre-stability studies of paracetamol in hydroalcoholic solution. The data set is classed as physicochemical.
The nature of data set [2]: DOSY 1H-NMR measurement of diffusion coefficients and hydrodynamic radius (Stokes-Einstein). The data set is classed as physicochemical. The settings on record: in ethanol; reference samples, 25° C. An excerpt: For the purposes of the present invention, “hydrodynamic radius”, or RH, means the radius of a solute in solution, said solute being assumed to be spherical, as defined by the following Stokes-Einstein relation [Edward, J. T. (1970) J. Chem. Educ. 47, 261; Einstein, A. (1905) Annalen Der Physik 17, 549-560; Einstein, A. (1906) Annalen Der Physik 19, 371-381]:
[formula] • D is the diffusion coefficient of the solute in the solvent (expressed in m^2·s^−1), • kB is the Boltzmann constant, and is kB=1.3806·10^−23 J·K^−1, • T is the temperature of the medium (expressed in K), • ρ is the viscosity of the medium (expressed in Pa·s, or equivalent in kg·s^−1·m^−1), and • RH is expressed in m. […]
The sizes of molecules in solution can be estimated by liquid NMR using so-called diffusion experiments to measure the diffusion coefficients of species in solution. The experiment is performed by applying a magnetic field gradient in a given direction, the direction in which the diffusion of particles is measured. […]
This table also includes viscosity values obtained from the literature [Khattab, I. S., Bandarkar, F., Fakhree, M. A. A., and Jouyban, A. (2012) Korean J. Chem. Eng. 29, 812-817], the mole fraction of ethanol and the hydrodynamic radius calculated from the Stokes-Einstein equation. The accuracy of the value thus calculated is estimated at ±0.1 Å. […]

With `CC(=O)Nc1ccc(O)cc1` [paracetamol], in data set [1] (6 months at 40° C., concentration greater than 115 mg/mL), the “Coloration in pre-stability studies” value was “appearance of pink coloration”. Besides, the “Recrystallization in stability studies” value in data set [1] (concentration too high, typically above 125 mg/mL) is recorded as “recrystallizes over time”. This molecule displayed an RH of paracetamol in data set [2] of 4.2 Å.
